Key:
Format in all cases: cell membranes
Homo sapiens [1] = species: Homo sapiens; assay: Selectivity ratio of IC50 for recombinant human CYP1A1 expressed in Escherichia coli membranes to IC50 for recombinant human CYP1B1 expressed in Escherichia coli membranes
Homo sapiens [2] = species: Homo sapiens; assay: Selectivity ratio of IC50 for recombinant human CYP1A1 expressed in Escherichia coli membranes to IC50 for recombinant human CYP1A2 expressed in Escherichia coli membranes
Homo sapiens [3] = species: Homo sapiens; assay: Selectivity ratio of IC50 for recombinant human CYP1A2 expressed in Escherichia coli membranes to IC50 for recombinant human CYP1B1 expressed in Escherichia coli membranes
Cytochrome P450 1A1 = target: T1, Cytochrome P450 1A1 (Homo sapiens, UniProt P04798); assay: Inhibition of recombinant human CYP1A1 expressed in Escherichia coli membranes co-expressing NADPH-P450 reductase assessed as reduction in ethoxyresorufin O-de-ethylation preincubated for 3 mins followed by NADPH addition and measured after 10 mins by fluorometric method
T1 sequence (P04798 whole entry): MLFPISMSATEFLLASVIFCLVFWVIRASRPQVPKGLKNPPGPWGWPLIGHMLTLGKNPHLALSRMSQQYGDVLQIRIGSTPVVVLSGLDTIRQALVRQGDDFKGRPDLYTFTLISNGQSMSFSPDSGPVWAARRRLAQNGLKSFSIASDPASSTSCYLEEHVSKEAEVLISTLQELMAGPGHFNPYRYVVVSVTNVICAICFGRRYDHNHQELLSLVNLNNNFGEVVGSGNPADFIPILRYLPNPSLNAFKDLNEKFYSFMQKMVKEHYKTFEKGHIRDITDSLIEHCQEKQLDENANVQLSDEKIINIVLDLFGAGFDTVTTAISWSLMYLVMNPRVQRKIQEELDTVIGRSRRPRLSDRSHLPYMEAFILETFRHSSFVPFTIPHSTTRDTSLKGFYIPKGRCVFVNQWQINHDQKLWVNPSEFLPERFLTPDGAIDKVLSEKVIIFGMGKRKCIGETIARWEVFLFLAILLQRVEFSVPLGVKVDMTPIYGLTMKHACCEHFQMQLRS

Cytochrome P450 1A2 = target: T2, Cytochrome P450 1A2 (Homo sapiens, UniProt P05177); assay: Inhibition of recombinant human CYP1A2 expressed in Escherichia coli membranes co-expressing NADPH-P450 reductase assessed as reduction in ethoxyresorufin O-de-ethylation preincubated for 3 mins followed by NADPH addition and measured after 10 mins by fluorometric method
T2 sequence (P05177 whole entry): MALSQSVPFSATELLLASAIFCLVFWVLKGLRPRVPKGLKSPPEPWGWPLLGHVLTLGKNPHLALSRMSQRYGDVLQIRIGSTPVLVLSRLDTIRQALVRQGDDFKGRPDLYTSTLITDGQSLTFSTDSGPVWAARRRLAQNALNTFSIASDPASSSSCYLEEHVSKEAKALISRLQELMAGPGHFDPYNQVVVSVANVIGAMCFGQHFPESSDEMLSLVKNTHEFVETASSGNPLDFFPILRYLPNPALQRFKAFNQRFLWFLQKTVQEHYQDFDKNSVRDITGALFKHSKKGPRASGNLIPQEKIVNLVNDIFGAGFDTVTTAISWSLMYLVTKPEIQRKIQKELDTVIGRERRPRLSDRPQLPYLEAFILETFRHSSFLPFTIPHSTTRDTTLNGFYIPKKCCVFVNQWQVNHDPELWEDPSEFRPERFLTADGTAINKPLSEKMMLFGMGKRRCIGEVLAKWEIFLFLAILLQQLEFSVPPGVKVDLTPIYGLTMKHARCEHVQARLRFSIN

Cytochrome P450 1B1 = target: T3, Cytochrome P450 1B1 (Homo sapiens, UniProt Q16678); assay: Inhibition of recombinant human CYP1B1 expressed in Escherichia coli membranes co-expressing NADPH-P450 reductase assessed as reduction in ethoxyresorufin O-de-ethylation preincubated for 3 mins followed by NADPH addition and measured after 10 mins by fluorometric method
T3 sequence (Q16678 whole entry): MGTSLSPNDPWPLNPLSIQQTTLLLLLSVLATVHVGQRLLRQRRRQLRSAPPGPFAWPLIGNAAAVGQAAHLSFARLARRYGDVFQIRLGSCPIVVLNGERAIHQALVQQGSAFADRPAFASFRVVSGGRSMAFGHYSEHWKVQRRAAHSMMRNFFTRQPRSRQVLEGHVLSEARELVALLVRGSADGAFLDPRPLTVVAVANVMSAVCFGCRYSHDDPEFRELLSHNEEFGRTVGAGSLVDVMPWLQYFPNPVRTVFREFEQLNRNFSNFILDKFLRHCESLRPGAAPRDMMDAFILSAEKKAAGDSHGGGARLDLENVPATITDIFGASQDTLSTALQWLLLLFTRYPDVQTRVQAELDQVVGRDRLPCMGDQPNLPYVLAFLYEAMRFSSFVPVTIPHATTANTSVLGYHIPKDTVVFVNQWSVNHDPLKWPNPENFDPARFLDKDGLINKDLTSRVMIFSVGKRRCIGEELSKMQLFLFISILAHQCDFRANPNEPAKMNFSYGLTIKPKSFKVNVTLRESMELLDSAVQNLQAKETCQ

Structure (SMILES)	Ratio IC50 (Homo sapiens [1])	Ratio IC50 (Homo sapiens [2])	Ratio IC50 (Homo sapiens [3])	IC50 (Cytochrome P450 1A1) [nM]	IC50 (Cytochrome P450 1A2) [nM]	IC50 (Cytochrome P450 1B1) [nM]
COc1cc(/C=C/c2cccs2)cc(OC)c1	30.5	5.5	5.5			
O=c1cc(-c2ccccc2)oc2c1ccc1ccccc12 [ALPHA-NAPHTHOFLAVONE]				55		
COc1cc(/C=C/c2cccs2)cc(OCCn2ccnc2)c1	10.3	27.3	0.4	41	1.5	4

Reference: ChEMBL document CHEMBL4325932, “Adaptable Small Ligand of CYP1 Enzymes for Use in Understanding the Structural Features Determining Isoform Selectivity” (ACS Med Chem Lett, 2018)
